Where two headings read alike, the source gives them in different places.
Columns and labels:
HCT-116 = assay: Cytotoxicity assay (SRB), HCT-116; assay type: cell-based; details: Homo sapiens, HCT-116, 72 h, HCT116 cells, SRB, read-out: In Vitro Cellular Activity IC50 HCT116
How it was run: (§1)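 Plate cells, let them attach overnight, add compound dilutions in RPMI 1640/5% FBS, and incubate 3 days (BT474 6 days). Then fix with TCA, stain with SRB, dissolve the dye in Tris and read at 540 nm.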

MCF-7 = assay: Cytotoxicity assay (SRB), MCF-7; assay type: cell-based; details: Homo sapiens, MCF7, 72 h, MCF-7 cells, SRB, read-out: In Vitro Cellular Activity IC50 MCF-7
How it was run: as §1

BT474 = assay: Cytotoxicity assay (SRB), BT474; assay type: cell-based
How it was run: as §1

cyclin B/CDK1 enzyme = target: T1, cyclin B/CDK1 enzyme (Homo sapiens, UniProt P06493); assay: CDK1 ELISA kinase assay (phospho-Rb ser 795 detection); assay type: biochemical
T1 construct: purchased New England BioLabs; host or cells: Sf9 insect cells, recombinant baculovirus
T1 sequence (P06493 whole entry): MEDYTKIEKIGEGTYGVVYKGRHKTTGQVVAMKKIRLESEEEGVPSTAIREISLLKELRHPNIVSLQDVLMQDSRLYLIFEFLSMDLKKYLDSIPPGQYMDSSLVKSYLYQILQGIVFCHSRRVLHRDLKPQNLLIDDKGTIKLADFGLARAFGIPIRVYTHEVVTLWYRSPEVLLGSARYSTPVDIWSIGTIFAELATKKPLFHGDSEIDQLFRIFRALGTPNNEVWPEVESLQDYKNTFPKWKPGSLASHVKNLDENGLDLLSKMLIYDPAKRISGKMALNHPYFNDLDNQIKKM
T1 sequence (P14635 whole entry partner): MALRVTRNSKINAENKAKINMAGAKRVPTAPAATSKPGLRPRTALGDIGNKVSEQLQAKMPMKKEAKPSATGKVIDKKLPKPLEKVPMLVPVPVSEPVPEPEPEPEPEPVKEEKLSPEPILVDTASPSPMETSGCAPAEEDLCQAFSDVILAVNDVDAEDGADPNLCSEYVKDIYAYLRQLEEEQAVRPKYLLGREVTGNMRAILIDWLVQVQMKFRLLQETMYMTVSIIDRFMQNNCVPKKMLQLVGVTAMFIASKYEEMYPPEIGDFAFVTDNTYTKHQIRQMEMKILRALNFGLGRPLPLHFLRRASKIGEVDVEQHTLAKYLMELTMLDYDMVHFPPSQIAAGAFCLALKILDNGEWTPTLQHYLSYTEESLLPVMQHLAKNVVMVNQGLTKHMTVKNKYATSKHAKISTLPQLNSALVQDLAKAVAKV
How it was run: (§2)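 Partially purified Sf9-expressed cyclin D1/CDK4, cyclin E/CDK2 or cyclin B/CDK1 phosphorylated plate-bound GST-Rb C-terminal fragment with 200 μM ATP at 30° C for 1 h.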

cyclin E/CDK2 enzyme = target: T2, cyclin E/CDK2 enzyme (Homo sapiens, UniProt P24941); assay: CDK2 ELISA kinase assay (phospho-Rb ser 795 detection); assay type: biochemical
T2 construct: made in house; host or cells: Sf9 insect cells, recombinant baculovirus
How it was run: as §2

LoVo = assay: Cytotoxicity assay (SRB), LoVo; assay type: cell-based; details: Homo sapiens, LoVo, 72 h, LoVo cells, SRB, read-out: In Vitro Cellular Activity IC50 LOVO
How it was run: as §1

cyclin D1/cdk 4 enzyme = target: T3, cyclin D1/cdk 4 enzyme (Homo sapiens, UniProt P11802); assay: CDK4 ELISA kinase assay (phospho-Rb ser 795 detection); assay type: biochemical
T3 construct: made in house; host or cells: Sf9 insect cells, recombinant baculovirus
T3 sequence (P11802 whole entry, species assumed): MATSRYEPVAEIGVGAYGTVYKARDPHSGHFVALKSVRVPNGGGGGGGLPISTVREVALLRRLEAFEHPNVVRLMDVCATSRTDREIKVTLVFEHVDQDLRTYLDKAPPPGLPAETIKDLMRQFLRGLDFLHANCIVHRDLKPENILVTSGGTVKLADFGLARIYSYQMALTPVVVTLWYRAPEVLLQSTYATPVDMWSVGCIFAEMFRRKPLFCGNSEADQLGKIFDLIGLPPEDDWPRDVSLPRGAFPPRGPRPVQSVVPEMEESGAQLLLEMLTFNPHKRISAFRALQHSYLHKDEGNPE
T3 sequence (P24385 whole entry partner, species assumed): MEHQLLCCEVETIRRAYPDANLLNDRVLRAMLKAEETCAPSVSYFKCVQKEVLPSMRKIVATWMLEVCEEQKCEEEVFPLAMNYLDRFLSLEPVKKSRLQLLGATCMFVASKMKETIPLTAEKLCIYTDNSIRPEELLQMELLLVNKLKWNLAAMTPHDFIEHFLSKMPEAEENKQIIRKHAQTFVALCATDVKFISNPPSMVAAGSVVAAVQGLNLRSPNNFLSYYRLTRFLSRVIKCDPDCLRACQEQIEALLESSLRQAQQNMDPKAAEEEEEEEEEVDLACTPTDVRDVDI
How it was run: as §2

[1] = Homo sapiens, BT-474, 144 h, BT474 cells, 6 days, SRB; read-out: In Vitro Cellular Activity IC50 BT474
[2] = In Vitro Enzyme Assays, read-out: CDK1 IC50
[3] = In Vitro Enzyme Assays, read-out: CDK2 IC50
[4] = In Vitro Enzyme Assays, 200 μM ATP, read-out: CDK4 IC50
[5] = Homo sapiens, BT-474, 144 h, BT474 cells, SRB, 6 days; read-out: In Vitro Cellular Activity IC50 BT474
[6] = In Vitro Enzyme Assay, cyclin B/CDK1, read-out: CDK1 IC50
[7] = In Vitro Enzyme Assay, cyclin E/CDK2, read-out: CDK2 IC50
[8] = In Vitro Enzyme Assay, cyclin D1/cdk 4, read-out: CDK4 IC50

Row | SMILES | IC50 (HCT-116; 3 days) [µM] | IC50 (MCF-7; 3 days) [µM] | IC50 (BT474; [1]) [µM] | IC50 (cyclin B/CDK1 enzyme; [2]) [µM] | IC50 (cyclin E/CDK2 enzyme; [3]) [µM] | IC50 (LoVo; 3 days) [µM] | IC50 (cyclin D1/cdk 4 enzyme; [4]) [nM] | IC50 (HCT-116; three days) [µM] | IC50 (MCF-7; three days) [µM] | IC50 (BT474; [5]) [µM] | IC50 (LoVo; three days) [µM] | IC50 (cyclin B/CDK1 enzyme; [6]) [µM] | IC50 (cyclin E/CDK2 enzyme; [7]) [µM] | IC50 (cyclin D1/cdk 4 enzyme; [8]) [nM] | IC50 (cyclin B/CDK1 enzyme; In Vitro Enzyme Assay, read-out: CDK1 IC50) [µM] | IC50 (cyclin E/CDK2 enzyme; In Vitro Enzyme Assay, read-out: CDK2 IC50) [µM] | IC50 (cyclin D1/cdk 4 enzyme; In Vitro Enzyme Assay, read-out: CDK4 IC50) [nM]
1 | COC1CCN(Cc2ccc(N/C=C3\C(=O)NC(=O)c4ccc(Br)cc43)cc2)CC1 [Example 397, (4Z)-6-Bromo-4-[({4-[(4-methoxypiperidin-1-yl)methyl]phenyl}amino)methylene]isoquinoline-1,3(2H,4H)-dione] | 2.8 | 3.6 | 6.18 | > 50 | > 50 | 4.3 | 190 | – | – | – | – | – | – | – | – | – | –
2 | CN1CCN(CCCNC=C2C(=O)NC(=O)c3ccc(-n4cccc4)cc32)CC1 [Example 279, 4-{[3-(4-Methyl-piperazin-1-yl)-propylamino]-methylene}-6-pyrrol-1-yl-4H-isoquinoline-1,3-dione] | – | – | – | > 50 | > 50 | – | 190 | 10 | 5.3 | 6 | 11 | – | – | – | – | – | –
3 | O=C1NC(=O)c2ccc(C=Cn3ccnc3)cc2C1=CNCc1ccc(O)c(O)c1 [Example 667, 4-[(3,4-Dihydroxy-benzylamino)-methylene]-6-(2-imidazol-1-yl-vinyl)-4H-isoquinoline-1,3-dione] | > 50 | 12.4 | > 50 | – | – | 29.4 | – | – | – | – | – | > 50 | 4 | 10 | – | – | –
4 | COc1ccc(CNC=C2C(=O)NC(=O)c3ccc(C=Cn4ccnc4)cc32)cc1O [Example 734, 4-[(3-Hydroxy-4-methoxy-benzylamino)-methylene]-6-(2-imidazol-1-yl-vinyl)-4H-isoquinoline-1,3-dione] | 11.9 | 6.7 | 9.9 | – | – | 2.5 | – | – | – | – | – | 20.2 | 5 | < 5 | – | – | –
5 | CCN(CC)c1ccc2c(c1)C(=CNCc1ccc(O)c(O)c1)C(=O)NC2=O [Example 608, 6-Diethylamino-4-[(3,4-dihydroxy-benzylamino)-methylene]-4H-isoquinoline-1,3-dione] | 11.4 | 10.7 | 11.6 | – | – | 10.4 | – | – | – | – | – | 18.9 | 6.7 | 200 | – | – | –
6 | CC(C)N1CCN(c2ccc(N/C=C3\C(=O)NC(=O)c4ccc(I)cc43)cc2)CC1 [Example 386, (4Z)-6-Iodo-4-({[4-(4-isopropylpiperazin-1-yl)phenyl]amino}methylene)isoquinoline-1,3(2H,4H)-dione] | – | – | – | > 50 | > 50 | – | 600 | 2.6 | 2.2 | 7 | 6.5 | – | – | – | – | – | –
7 | O=C1NC(=O)c2ccc(C=CC3CCCCC3)cc2C1=CNCc1ccc(O)c(O)c1 [Example 664, 6-(2-Cyclohexyl-vinyl)-4-[(3,4-dihydroxy-benzylamino)-methylene]-4H-isoquinoline-1,3-dione] | 6.7 | 4.8 | 9.3 | – | – | 6 | – | – | – | – | – | > 50 | 31.7 | 220 | – | – | –
8 | CN(CCN1CCCCC1)c1ccc(N/C=C2\C(=O)NC(=O)c3ccc(Br)cc32)cc1 [Example 256, (4Z)-6-Bromo-4-[({4-[methyl(2-piperidin-1-ylethyl)amino]phenyl}amino)methylene]isoquinoline-1,3(2H,4H)-dione] | – | – | – | > 50 | > 50 | – | 4300 | 3.1 | 5.3 | 7.5 | 3.6 | – | – | – | – | – | –
9 | CCCOc1ccc(CN/C=C2\C(=O)NC(=O)c3ccc(Br)cc32)cc1O [Example 130, (4Z)-6-Bromo-4-{[(3-hydroxy-4-propoxybenzyl)amino]methylene}isoquinoline-1,3(2H,4H)-dione] | – | – | – | 42.5 | 34.5 | – | 350 | 0.73 | 4 | 0.65 | 0.94 | – | – | – | – | – | –
10 | Cc1ccc(-c2ccc3c(c2)C(=CNCc2ccc(O)c(O)c2)C(=O)NC3=O)cc1 [Example 781, 4-[(3,4-Dihydroxy-benzylamino)-methylene]-6-p-tolyl-4H-isoquinoline-1,3-dione] | 14.4 | 12.7 | 23.3 | – | – | 14 | – | – | – | – | – | > 50 | 27.7 | 740 | – | – | –
11 | COC[C@@H]1CCCN1Cc1ccc(N/C=C2\C(=O)NC(=O)c3ccc(I)cc32)cc1 [Example 285, (4Z)-6-Iodo-4-{[(4-{[(2S)-2-(methoxymethyl)pyrrolidin-1-yl]methyl}phenyl)amino]methylene}isoquinoline-1,3(2H,4H)-dione] | – | – | – | > 50 | > 50 | – | 760 | 3.6 | 0.79 | 0.37 | 3.6 | – | – | – | – | – | –
12 | CN(C)CCCc1ccc(N/C=C2\C(=O)NC(=O)c3ccc(Br)cc32)cc1 [Example 874, (4Z)-6-Bromo-4-[({4-[3-(dimethylamino)propyl]phenyl}amino)methylene]isoquinoline-1,3(2H,4H)-dione] | 12.6 | 7.2 | 27.4 | – | – | 23.7 | – | – | – | – | – | – | – | – | > 50 | 38.8 | 3000
13 | O=C1NC(=O)c2ccc(-c3ccc4[nH]ccc4c3)cc2C1=CNCc1ccc(O)c(O)c1 [Example 646, 4-[(3,4-Dihydroxy-benzylamino)-methylene]-6-(1H-indol-5-yl)-4H-isoquinoline-1,3-dione] | 8.4 | 7.7 | 11.9 | – | – | 10.7 | – | – | – | – | – | 13.5 | 2.9 | 40 | – | – | –
14 | CN(C)CCCCCN/C=C1\C(=O)NC(=O)c2ccc(Br)cc21 [Example 304, (Z)-6-Bromo-4-((5-(dimethylamino)pentylamino)methylene)isoquinoline-1,3(2H,4H)-dione] | – | – | – | > 50 | 36.3 | – | 1500 | 13 | 7.1 | 16 | 6.7 | – | – | – | – | – | –
15 | O=C1NC(=O)c2ccc(Br)cc2/C1=C/NCc1ccc(O)c(O)c1O [Example 175] | – | – | – | 3.1 | 18.5 | – | 4500 | 28 | > 50 | > 50 | > 50 | – | – | – | – | – | –
16 | O=C1NC(=O)c2ccc(Br)cc2/C1=C/NCc1cc(O)ccc1O [Example 173, (4Z)-6-Bromo-4-{[(2,5-dihydroxybenzyl)amino]methylene}isoquinoline-1,3(2H,4H)-dione] | – | – | – | > 50 | 4.7 | – | 110 | 11 | 12 | 8.3 | 17 | – | – | – | – | – | –
17 | CC(C)(C)c1ccc2c(c1)/C(=C/NCc1ccn(-c3ccoc3)c(=O)c1)C(=O)NC2=O [Example 533, (4Z)-6-tert-Butyl-4-[({[1-(3-furyl)-2-oxo-1,2-dihydropyridin-4-yl]methyl}amino)methylene]isoquinoline-1,3(2H,4H)-dione] | 1.5 | 1.5 | 0.49 | – | – | 0.73 | – | – | – | – | – | 6.4 | 3.5 | 30 | – | – | –
18 | O=C1NC(=O)c2ccc(I)cc2/C1=C/NCc1ccc(I)c(O)c1 [Example 504, 4-[(3-Hydroxy-4-iodo-benzylamino)-methylene]-6-iodo-4H-isoquinoline-1,3-dione] | 3.9 | 1.5 | 1 | – | – | 4.3 | – | – | – | – | – | > 50 | > 50 | 8 | – | – | –
